How the values were obtained:
PMM2-CDG patients [1] = test: Liver enzymes (AST, ALT) in patients on epalrestat; type: in vivo, human; settings: for ALT: C < 45 U/l; for AST: C: < 50 U/l
Description: (§1) The primary objective of the study was to assess the efficacy and safety of epalrestat treatment in 3 PMM2-CDG pediatric subjects prior to a planned Phase III clinical trial (Oral epalrestat therapy in Pediatric Subjects with PMM2-CDG, NCT04925960). The secondary objective was to assess the ability of epalrestat to improve clinically relevant aspects of PMM2-CDG such as increased urine polyols (sorbitol, mannitol), abnormal glycosylation (carbohydrate deficient transferrin), abnormal coagulation (ATIII=antithrombin III), impaired liver function (ALT=Alanine Transaminase, AST=Aspartate Transaminase), neurologic function (Brief Ataxia Rating Scale=BARS), severity of phenotype (Nijmegen Pediatric CDG Rating Scale=NPCRS). The ability of epalrestat to inhibit polyol production was monitored by evaluating urine polyol levels (sorbitol, mannitol), which are elevated in PMM2-CDG. Next, carbohydrate deficient transferrin, which is abnormal in PMM2-CDG, was evaluated in order to assess improvement of glycosylation following epalrestat treatment. CDT mono-oligo/dioligo ratio and a-oligo/dioligo ratio are used to evaluate glycosylation abnormalities. Transferrin normally occurs with two glycan chains (di-oligo). In the case of glycosylation abnormalities, glycan chains are missing (A-oligo transferrin has no glycan chains, mono-oligo has one glycan chain, di-oligo has two glycan chains). The higher ratio of a-oligo/di-oligo and mono-oligo/di-oligo indicate glycosylation abnormalities are present. Therefore, improvement in a-oligo/di-oligo and mono-oligo/di-oligo ratios can be used to monitor improvement or worsening of glycosylation status. Changes in the liver enzymes AST, ALT, which are frequently elevated in PMM2-CDG, were monitored both as part of a safety study and as part of monitoring clinical improvement in coagulation. Neurologic improvement was assessed by modified BARS scores in 2 patients (3rd patient was not eligible for the test due to age at the start of the trial). NPCRS was assessed at every visit to assess changes in the severity of the patients' phenotype. Additionally, the frequency of adverse events, changes in vital signs, complete blood count, and changes in BMI were monitored.
(§2) Two patients were started on epalrestat on single patient investigational new drug (IND) (P5 IRB: 19-010017; IND #145262; P6 Protocol PMM2-CDG-001/A). Epalrestat was initiated on the parents' own initiative in the third patient (P7). Two patients were in their second year of epalrestat treatment, while the third, was in the 3rd year of treatment. Physical, neurological, and biochemical examinations were performed in 3 PMM2-CDG patients at baseline, and at every three months after the start of the epalrestat treatment. Patients underwent NPCRS phenotype severity assessment and biological sampling at every visit. Epalrestat (Ono Pharmaceuticals, Osaka, Japan) was taken orally 3 times per day (TID) before meals in a divided dose, with dosage escalation throughout the treatment. The pharmacological profile of epalrestat was as described elsewhere (Ligezka et al, Ann. Neurol., 90(6):887-900 (2021)). The starting dosage in P5 and P6 was 0.8 mg/kg/day, while P7 was started on 0.5 mg/kg/day due to their young age. P7 dosage was increased to 0.8 mg/day after a month, once safety was established. Blood and urine samples were collected routinely. Urine polyols, carbohydrate deficient transferrin (CDT), anti-thrombin III (ATIII), liver enzymes (ALT, AST), and complete blood count (CBC) were performed. Modified Brief Ataxia Rating Scale was used to assess ataxia in the 2 patients (P5, P6; P7 was not eligible for the test due to age). The modified BARS scale included Archimedes spiral test, but not the abnormalities of the ocular pursuit system and the scale range was 0-54. Goal attainment scale (GAS) was administered as described per study protocol (ClinicalTrials.gov Identifier: NCT04199000). […]

PMM2-CDG patients [2] = test: Modified Brief Ataxia Rating Scale (BARS) in patients on epalrestat; type: in vivo, human
Description: as §1, §2

In the case of `CC(/C=C1\SC(=S)N(CC(=O)O)C1=O)=C\c1ccccc1` [epalrestat], the ALT (PMM2-CDG patients [1]; P5, 12 months, 1.5 mg/kg day, baseline 23) is reported as 24 U/L, the AST (PMM2-CDG patients [1]; P5, 12 months, 1.5 mg/kg day, baseline 48) is reported as 37 U/L and the ALT (PMM2-CDG patients [1]; P5, 24 months, 2 mg/kg day, baseline 23) is reported as 25 U/L. For the same compound, the AST (PMM2-CDG patients [1]; P5, 24 months, 2 mg/kg day, baseline 48) was 34 U/L, the ALT (PMM2-CDG patients [1]; P5, 28 months, 3 mg/kg day, baseline 23) was 25 U/L and the AST (PMM2-CDG patients [1]; P5, 28 months, 3 mg/kg day, baseline 48) was 40 U/L. The liver transaminase levels (PMM2-CDG patients [1]; P5-P7, words) was “improvement”, the AST (PMM2-CDG patients [1]; P6, 12 months, 1.5 mg/kg day, baseline 58) was 40 U/L and the ALT (PMM2-CDG patients [1]; P6, 12 months, 1.5 mg/kg day, baseline 67) was 32 U/L. The AST (PMM2-CDG patients [1]; P6, 18 months, 3 mg/kg day, baseline 58) was 38 U/L, the ALT (PMM2-CDG patients [1]; P6, 18 months, 3 mg/kg day, baseline 67) was 49 U/L and the AST (PMM2-CDG patients [1]; P7, 12 months, 1.5 mg/kg day, baseline 548) was 80 U/L. The ALT (PMM2-CDG patients [1]; P7, 12 months, 1.5 mg/kg day, baseline 997) was 105 U/L, the “Modified BARS (max 54)” value (PMM2-CDG patients [2]; P5, 12 months, 1.5 mg/kg day, baseline 39) was 29 and the “Modified BARS (max 54)” value (PMM2-CDG patients [2]; P5, 24 months, 2 mg/kg day, baseline 39) was 33. For the same compound, the “Modified BARS (max 54)” value (PMM2-CDG patients [2]; P5, 28 months, 3 mg/kg day, baseline 39) was 30, the “ataxia (modified BARS scores)” value (PMM2-CDG patients [2]; P5, P6, words) was “improvement in ataxia” and the “Modified BARS (max 54)” value (PMM2-CDG patients [2]; P6, 12 months, 1.5 mg/kg day, baseline 45) was 29. For the same compound, the “Modified BARS (max 54)” value (PMM2-CDG patients [2]; P6, 18 months, 3 mg/kg day, baseline 45) was 27.

Reference: patent US20260335294A1, “TREATING CONGENITAL DISORDERS OF GLYCOSYLATION” (Mayo Foundation for Medical Education and Research, priority 2022, published 2026)
